Reference: ChEMBL document CHEMBL6071135, “New resorcylic acid derivatives of Lysimachia tengyuehensis against MRSA and VRE by interfering with bacterial metabolic imbalance” (Eur J Med Chem, 2024)
Converted amounts (≈) assume the structure as drawn. The source made the active and inactive calls. No cut-off for these calls is given here.

Legend:
Staphylococcus aureus [1] = assay: Antibacterial activity against methicillin-resistant Staphylococcus aureus measured after 24 hrs by CLSI based broth microdilution method; assay type: functional
Staphylococcus aureus [2] = assay: Bactericidal activity against methicillin-resistant Staphylococcus aureus measured after 24 hrs by CLSI based broth microdilution method; assay type: functional
Enterococcus faecalis [3] = assay: Bactericidal activity against vancomycin-resistant Enterococcus faecalis ATCC51299 measured after 24 hrs by CLSI based broth microdilution method; assay type: functional
Enterococcus faecalis [4] = assay: Antibacterial activity against vancomycin-resistant Enterococcus faecalis ATCC51299 at sub-MIC concentration measured after 24 hrs by CLSI based broth microdilution method; assay type: functional, organism-based
Staphylococcus aureus [5] = assay: Bactericidal activity against methicillin-resistant Staphylococcus aureus assessed as reduction in number of bacteria at 2 times MIC measured within 15 mins by time-kill assay; assay type: functional, organism-based
Enterococcus faecalis [6] = assay: Bactericidal activity against vancomycin-resistant Enterococcus faecalis ATCC51299 assessed as reduction in number of bacteria at 2 times MIC measured within 15 mins by time-kill assay; assay type: functional, organism-based
Staphylococcus aureus [7] = assay: Bactericidal activity against methicillin-resistant Staphylococcus aureus assessed as reduction in number of bacteria at 1 time MIC measured within 40 mins by time-kill assay; assay type: functional, organism-based
Enterococcus faecalis [8] = assay: Bactericidal activity against vancomycin-resistant Enterococcus faecalis ATCC51299 assessed as reduction in number of bacteria at 1 time MIC measured within 40 mins by time-kill assay; assay type: functional, organism-based
Enterococcus faecalis [9] = assay: Antibacterial activity against vancomycin-resistant Enterococcus faecalis ATCC51299 measured after 20 passages by broth microdilution method; assay type: functional, organism-based
Staphylococcus aureus [10] = assay: Induction of morphological changes in biofilm of methicillin-resistant Staphylococcus aureus assessed as decrease in biofilm density at 1 to 4 times MIC incubated for 24 hrs by DAPI staining based fluorescence microscopy analysis; assay type: functional, organism-based
Staphylococcus aureus [11] = assay: Induction of morphological changes in biofilm of methicillin-resistant Staphylococcus aureus assessed as appearance of destroyed biofilm at 1 to 4 times MIC incubated for 24 hrs by DAPI staining based fluorescence microscopy analysis; assay type: functional, organism-based
Staphylococcus aureus [12] = assay: Induction of morphological changes in biofilm of methicillin-resistant Staphylococcus aureus assessed as appearance of broken biofilm at 1 to 4 times MIC incubated for 24 hrs by DAPI staining based fluorescence microscopy analysis; assay type: functional, organism-based
Enterococcus faecalis [13] = assay: Induction of morphological changes in biofilm of vancomycin-resistant Enterococcus faecalis ATCC51299 assessed as decrease in biofilm density at 1 to 4 times MIC incubated for 24 hrs by DAPI staining based fluorescence microscopy analysis; assay type: functional, organism-based
Enterococcus faecalis [14] = assay: Induction of morphological changes in biofilm of vancomycin-resistant Enterococcus faecalis ATCC51299 assessed as appearance of destroyed biofilm at 1 to 4 times MIC incubated for 24 hrs by DAPI staining based fluorescence microscopy analysis; assay type: functional, organism-based
Enterococcus faecalis [15] = assay: Induction of morphological changes in biofilm of vancomycin-resistant Enterococcus faecalis ATCC51299 assessed as appearance of broken biofilm at 1 to 4 times MIC incubated for 24 hrs by DAPI staining based fluorescence microscopy analysis; assay type: functional, organism-based
Staphylococcus aureus [16] = assay: Antibiofilm activity in methicillin-resistant Staphylococcus aureus assessed as increase in biofilm destruction incubated for 24 hrs by crystal violet staining based analysis; assay type: functional, organism-based
Enterococcus faecalis [17] = assay: Antibiofilm activity in vancomycin-resistant Enterococcus faecalis ATCC51299 assessed as increase in biofilm destruction incubated for 24 hrs by crystal violet staining based analysis; assay type: functional, organism-based
Staphylococcus aureus [18] = assay: Induction of morphological changes in methicillin-resistant Staphylococcus aureus assessed as appearance of clustered bacterial surface at 4 times MIC measured for 5 hrs by field emission scanning electron microscopy based analysis; assay type: functional, organism-based
Staphylococcus aureus [19] = assay: Induction of morphological changes in methicillin-resistant Staphylococcus aureus assessed as appearance of ruptured bacterial surface at 4 times MIC measured for 5 hrs by field emission scanning electron microscopy based analysis; assay type: functional, organism-based
Staphylococcus aureus [20] = assay: Induction of morphological changes in methicillin-resistant Staphylococcus aureus assessed as appearance of died bacterial surface at 4 times MIC measured for 5 hrs by field emission scanning electron microscopy based analysis; assay type: functional, organism-based
Enterococcus faecalis [21] = assay: Induction of morphological changes in vancomycin-resistant Enterococcus faecalis ATCC51299 assessed as appearance of died bacterial surface at 4 times MIC measured for 5 hrs by field emission scanning electron microscopy based analysis; assay type: functional, organism-based
Enterococcus faecalis [22] = assay: Induction of morphological changes in vancomycin-resistant Enterococcus faecalis ATCC51299 assessed as appearance of clustered bacterial surface at 4 times MIC measured for 5 hrs by field emission scanning electron microscopy based analysis; assay type: functional, organism-based
Enterococcus faecalis [23] = assay: Induction of morphological changes in vancomycin-resistant Enterococcus faecalis ATCC51299 assessed as appearance of flocculated bacterial surface at 4 times MIC measured for 5 hrs by field emission scanning electron microscopy based analysis; assay type: functional, organism-based
Staphylococcus aureus [24] = assay: Antimicrobial activity against methicillin-resistant Staphylococcus aureus assessed as reduction in bacterial growth in presence of phosphatidylglycerol by checkerboard broth dilution method; assay type: functional, organism-based
Staphylococcus aureus [25] = assay: Antimicrobial activity against methicillin-resistant Staphylococcus aureus assessed as reduction in bacterial growth in presence of phosphatidylethanolamine by checkerboard broth dilution method; assay type: functional, organism-based
Staphylococcus aureus [26] = assay: Antimicrobial activity against methicillin-resistant Staphylococcus aureus assessed as reduction in bacterial growth in presence of peptidoglycan by checkerboard broth dilution method; assay type: functional, organism-based
Enterococcus faecalis [27] = assay: Antimicrobial activity against vancomycin-resistant Enterococcus faecalis ATCC51299 assessed as reduction in bacterial growth in presence of peptidoglycan by checkerboard broth dilution method; assay type: functional, organism-based
Enterococcus faecalis [28] = assay: Antimicrobial activity against vancomycin-resistant Enterococcus faecalis ATCC51299 assessed as reduction in bacterial growth in presence of phosphatidylethanolamine by checkerboard broth dilution method; assay type: functional, organism-based
Staphylococcus aureus [29] = assay: Antimicrobial activity against methicillin-resistant Staphylococcus aureus assessed as increase in cell membrane fluidity at upto 4 times MIC incubated for 35 mins by Laurdan-GP dye based spectramax gemini XPS microplate reader analysis; assay type: functional, organism-based
Enterococcus faecalis [30] = assay: Antimicrobial activity against vancomycin-resistant Enterococcus faecalis ATCC51299 assessed as increase in cell membrane fluidity at upto 4 times MIC incubated for 35 mins by Laurdan-GP dye based spectramax gemini XPS microplate reader analysis; assay type: functional, organism-based
Cell membrane [31] = assay: Induction of cell membrane depolarization in methicillin-resistant Staphylococcus aureus assessed as reduction in fluorescence intensity measured for 30 mins by DiSC3(5) dye-based fluorescence assay; assay type: subcellular
Cell membrane [32] = assay: Induction of cell membrane depolarization in vancomycin-resistant Enterococcus faecalis ATCC51299 assessed as reduction in fluorescence intensity measured for 30 mins by DiSC3(5) dye-based fluorescence assay; assay type: subcellular
Cell membrane [33] = assay: Induction of cell membrane damage in methicillin-resistant Staphylococcus aureus assessed as increase in ROS accumulation at 4 times MIC incubated for 1 hr by fluorescence based analysis; assay type: subcellular
Cell membrane [34] = assay: Induction of cell membrane damage in methicillin-resistant Staphylococcus aureus assessed as increase in nucleic acid leakage at 4 times MIC incubated for 2 hrs by absorbance based analysis; assay type: subcellular
Cell membrane [35] = assay: Induction of cell membrane damage in vancomycin-resistant Enterococcus faecalis ATCC51299 assessed as increase in ROS accumulation at 4 times MIC incubated for 1 hr by fluorescence based analysis; assay type: subcellular
Cell membrane [36] = assay: Induction of cell membrane damage in vancomycin-resistant Enterococcus faecalis ATCC51299 assessed as increase in nucleic acid leakage at 4 times MIC incubated for 2 hrs by absorbance based analysis; assay type: subcellular

SMILES | Activity (Staphylococcus aureus [1]) | MIC (Staphylococcus aureus [1]) [µg/mL] | MBC (Staphylococcus aureus [2]) [µg/mL] | MBC (Enterococcus faecalis [3]) [µg/mL] | Activity (Enterococcus faecalis [4]) | Activity (Staphylococcus aureus [5]) | Activity (Enterococcus faecalis [6]) | Activity (Staphylococcus aureus [7]) | Activity (Enterococcus faecalis [8]) | Activity (Enterococcus faecalis [9]) | Activity (Staphylococcus aureus [10]) | Activity (Staphylococcus aureus [11]) | Activity (Staphylococcus aureus [12]) | Activity (Enterococcus faecalis [13]) | Activity (Enterococcus faecalis [14]) | Activity (Enterococcus faecalis [15]) | Activity (Staphylococcus aureus [16]) | Activity (Enterococcus faecalis [17]) | Activity (Staphylococcus aureus [18]) | Activity (Staphylococcus aureus [19]) | further results
C=CCCCCCCCCCCCc1cc(O)cc(O)c1C(=O)O | Active | 4 (≈ 12 µM) | 4 (≈ 12 µM) | 4 (≈ 12 µM) | Active | Active | Active | Active | Active | inactive | Active | Active | Active | Active | Active | Active | Dose-Dependent Effect | Dose-Dependent Effect | Active | Active | Activity (Staphylococcus aureus [20]): Active; Activity (Enterococcus faecalis [21]): Active; Activity (Enterococcus faecalis [22]): Active; Activity (Enterococcus faecalis [23]): Active; Activity (Staphylococcus aureus [24]): inactive; Activity (Staphylococcus aureus [25]): inactive; Activity (Staphylococcus aureus [26]): Active; Activity (Enterococcus faecalis [27]): inactive; Activity (Enterococcus faecalis [28]): inactive; Activity (Staphylococcus aureus [29]): Active; Activity (Enterococcus faecalis [30]): Active; Activity (Cell membrane [31]): Active; Activity (Cell membrane [32]): Active; Activity (Cell membrane [33]): Active; Activity (Cell membrane [34]): Active; Activity (Cell membrane [35]): Active; Activity (Cell membrane [36]): Active
C=CCCCCCCCCCCCc1cc(O)cc(O)c1 | Active | 4 (≈ 13.8 µM) | 4 (≈ 13.8 µM) | 4 (≈ 13.8 µM) | Active | Active | Active | Active | Active | inactive | Active | Active | Active | Active | Active | Active | Dose-Dependent Effect | Dose-Dependent Effect | Active | Active | Activity (Staphylococcus aureus [20]): Active; Activity (Enterococcus faecalis [21]): Active; Activity (Enterococcus faecalis [22]): Active; Activity (Enterococcus faecalis [23]): Active; Activity (Staphylococcus aureus [24]): inactive; Activity (Staphylococcus aureus [25]): inactive; Activity (Staphylococcus aureus [26]): Active; Activity (Enterococcus faecalis [27]): inactive; Activity (Enterococcus faecalis [28]): inactive; Activity (Staphylococcus aureus [29]): Active; Activity (Enterococcus faecalis [30]): Active; Activity (Cell membrane [31]): Active; Activity (Cell membrane [32]): Active; Activity (Cell membrane [33]): Active; Activity (Cell membrane [34]): Active; Activity (Cell membrane [35]): Active; Activity (Cell membrane [36]): Active
